{"source": "patent US20240180842A1", "about": "“COLON TARGETED DRUG DELIVERY” (Axial Therapeutics, Inc., priority 2022, published 2024)", "origin": "cited, not measured here", "system": "ASD individuals with high irritability (ABC-I≥18)", "conditions": "phase 3 study, drug arms; placebo arm 34.7%", "data": [{"smiles": "O=C1CCc2ccc(OCCCCN3CCN(c4cccc(Cl)c4Cl)CC3)cc2N1", "note": "[aripiprazole]", "values": [{"measurement": "response rate (25% improvement in ABC-I scores and CGI-I≤2)", "value": "49-56%"}]}]}
